Laboratory results reported in PubChem BioAssay AID248 (DTP/NCI, 2004).
Values joined by “and” are separate entries in the source; they are usually repeats but may differ in a detail not shown here. Equal entries are not always repeated. Toxic doses and inconclusive results are not listed. Cut-off read from the data, not from the text of the source: active = T/C of 150% or more; inactive = T/C below 125%.

Test system: L1210 leukemia ip in BDF1 mice, survival T/C
Assay: NCI In Vivo Anticancer Drug Screen. Data for tumor model L1210 Leukemia (intraperitoneal) in B6D2F1 (BDF1) mice
Conditions: endpoint: mean survival time, higher = longer survival
How it was run: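 Read-out is survival time, reported as the treated-group measurement over the vehicle-control measurement.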

[1] = dose: 100.0 mg/kg/injection, schedule: Q01DX001 (ip), vehicle: saline
[2] = dose: 200.0 mg/kg/injection, schedule: Q01DX001 (ip), vehicle: saline
[3] = dose: 400.0 mg/kg/injection, schedule: Q01DX001 (ip), vehicle: saline
[4] = dose: 100.0 mg/kg/injection, schedule: Q04DX003 (ip), vehicle: Klucel (hydroxypropylcellulose) (HPC)
[5] = dose: 200.0 mg/kg/injection, schedule: Q04DX003 (ip), vehicle: Klucel (hydroxypropylcellulose) (HPC)
[6] = dose: 400.0 mg/kg/injection, schedule: Q04DX003 (ip), vehicle: Klucel (hydroxypropylcellulose) (HPC)
[7] = dose: 100.0 mg/kg/injection, schedule: Q01DX009 (ip), vehicle: saline with Tween-80
[8] = dose: 100.0 mg/kg/injection, schedule: Q04DX003 (ip), vehicle: saline with Tween-80
[9] = dose: 100.0 mg/kg/injection, schedule: Q01DX009 (ip), vehicle: saline
[10] = dose: 100.0 mg/kg/injection, schedule: Q04DX003 (ip), vehicle: saline
[11] = dose: 200.0 mg/kg/injection, schedule: Q01DX009 (ip), vehicle: saline
[12] = dose: 200.0 mg/kg/injection, schedule: Q04DX003 (ip), vehicle: saline
[13] = dose: 400.0 mg/kg/injection, schedule: Q04DX003 (ip), vehicle: saline

Measured: T/C

c1cc[c]([GeH]([c]2ccccc2)[c]2ccccc2)cc1
inactive: dose: 64.0 mg/kg/injection, schedule: Q04DX002 (ip), vehicle: saline with Tween-80 91 % of control | dose: 160.0 mg/kg/injection, schedule: Q04DX002 (ip), vehicle: saline with Tween-80 94 % of control | dose: 400.0 mg/kg/injection, schedule: Q04DX002 (ip), vehicle: saline with Tween-80 97 % of control

CNc1ccc(N=Nc2ccc3ncccc3c2)cc1
inactive: dose: 3.8 mg/kg/injection, schedule: Q01DX009 (ip), vehicle: saline 98 % of control | dose: 6.7 mg/kg/injection, schedule: Q01DX Z (ip), vehicle: carboxymethylcellulose (CMC) 98 % of control | dose: 7.5 mg/kg/injection, schedule: Q01DX009 (ip), vehicle: saline 102 % of control | dose: 10.0 mg/kg/injection, schedule: Q01DX Z (ip), vehicle: carboxymethylcellulose (CMC) 92 % of control | dose: 15.0 mg/kg/injection, schedule: Q01DX009 (ip), vehicle: saline 98 % of control | dose: 15.0 mg/kg/injection, schedule: Q01DX Z (ip), vehicle: carboxymethylcellulose (CMC) 92 % of control | dose: 30.0 mg/kg/injection, schedule: Q01DX009 (ip), vehicle: saline 89 % of control

COc1ccc(-c2ccccc2)cc1C(=O)CCC(=O)O
inactive: [1] 100 % of control | [2] 96 % of control | [3] 96 % of control

C=C1C(=O)N2CCCC2C(=O)N1C (centres undefined)
inactive: dose: 75.0 mg/kg/injection, schedule: Q04DX002 (ip), vehicle: saline 94 % of control | dose: 150.0 mg/kg/injection, schedule: Q04DX002 (ip), vehicle: saline 97 % of control | dose: 300.0 mg/kg/injection, schedule: Q04DX002 (ip), vehicle: saline 87 % of control

C/C=C/c1cc(C)cc(C)c1OC(C)CC (centres undefined)
inactive: dose: 100.0 mg/kg/injection, schedule: Q04DX002 (ip), vehicle: saline with Tween-80 104 % of control | dose: 200.0 mg/kg/injection, schedule: Q04DX002 (ip), vehicle: saline with Tween-80 93 % of control

O=[N+]([O-])c1cccc2c([N+](=O)[O-])cccc12
inactive: dose: 100.0 mg/kg/injection, schedule: Q01DX009 (ip), vehicle: saline sonified 107 % of control | [4] 95 % of control | dose: 200.0 mg/kg/injection, schedule: Q01DX009 (ip), vehicle: saline sonified 101 % of control | [5] 92 % of control | dose: 400.0 mg/kg/injection, schedule: Q01DX009 (ip), vehicle: saline sonified 109 % of control | [6] 90 % of control

COc1cc(Cl)ccc1NC(=O)C(O)C(O)C(O)C(O)CO (centres undefined)
inactive: dose: 100.0 mg/kg/injection, schedule: Q01DX001 (ip), vehicle: other 97 % of control | dose: 100.0 mg/kg/injection, schedule: Q01DX009 (ip), vehicle: other 100 % of control and 103 % of control | dose: 100.0 mg/kg/injection, schedule: Q04DX002 (ip), vehicle: other 98 % of control and 103 % of control | dose: 100.0 mg/kg/injection, schedule: Q04DX003 (ip), vehicle: carboxymethylcellulose (CMC) 103 % of control | dose: 200.0 mg/kg/injection, schedule: Q01DX001 (ip), vehicle: other 90 % of control | dose: 200.0 mg/kg/injection, schedule: Q01DX009 (ip), vehicle: other 94 % of control and 97 % of control | dose: 200.0 mg/kg/injection, schedule: Q04DX002 (ip), vehicle: other 98 % of control and 92 % of control | dose: 200.0 mg/kg/injection, schedule: Q04DX003 (ip), vehicle: carboxymethylcellulose (CMC) 100 % of control | dose: 400.0 mg/kg/injection, schedule: Q01DX001 (ip), vehicle: other 101 % of control | dose: 400.0 mg/kg/injection, schedule: Q01DX009 (ip), vehicle: other 95 % of control and 97 % of control | dose: 400.0 mg/kg/injection, schedule: Q04DX002 (ip), vehicle: other 103 % of control and 113 % of control | dose: 400.0 mg/kg/injection, schedule: Q04DX003 (ip), vehicle: carboxymethylcellulose (CMC) 103 % of control

O=[N+]([O-])c1ccc(N2CCOCC2)cc1
inactive: [4] 95 % of control | [5] 100 % of control | [6] 105 % of control

CC(C)(C)NC1=NCCO1
inactive: dose: 25.0 mg/kg/injection, schedule: Q01DX009 (ip), vehicle: saline with Tween-80 100 % of control | dose: 50.0 mg/kg/injection, schedule: Q01DX009 (ip), vehicle: saline with Tween-80 102 % of control | [7] 96 % of control | [8] 100 % of control

NNC(=O)c1n[nH]c(C2OC(CO)C(O)C2O)c1N (centres undefined)
inactive: dose: 100.0 mg/kg/injection, schedule: Q01DX005 (ip), vehicle: saline 100 % of control | dose: 200.0 mg/kg/injection, schedule: Q01DX005 (ip), vehicle: saline 94 % of control

CCN(CCO)c1ccc(N=Nc2ccc([N+](=O)[O-])cc2)cc1
inactive: dose: 100.0 mg/kg/injection, schedule: Q01DX001 (ip), vehicle: Klucel (hydroxypropylcellulose) (HPC) 105 % of control | dose: 200.0 mg/kg/injection, schedule: Q01DX001 (ip), vehicle: Klucel (hydroxypropylcellulose) (HPC) 96 % of control | dose: 400.0 mg/kg/injection, schedule: Q01DX001 (ip), vehicle: Klucel (hydroxypropylcellulose) (HPC) 100 % of control

O=C(CC1(O)C(=O)Nc2ccccc21)c1ccccc1 (centres undefined)
inactive: [4] 101 % of control | [5] 96 % of control | [6] 96 % of control

C/C(CC(C)C)=N/Nc1nc(C)cc(=O)[nH]1
inactive: dose: 100.0 mg/kg/injection, schedule: Q01DX009 (ip), vehicle: Klucel (hydroxypropylcellulose) (HPC) 92 % of control | [4] 105 % of control | dose: 200.0 mg/kg/injection, schedule: Q01DX009 (ip), vehicle: Klucel (hydroxypropylcellulose) (HPC) 97 % of control | [5] 100 % of control | [6] 92 % of control

CC(O)Cn1cnc2c1c(=O)n(C)c(=O)n2C (centres undefined)
inactive: [9] 93 % of control | [10] 95 % of control | [11] 95 % of control | [12] 95 % of control | [13] 94 % of control

O=C1c2ccccc2C(=O)N1Cc1cccc([N+](=O)[O-])c1
inactive: dose: 12.5 mg/kg/injection, schedule: Q01DX009 (ip), vehicle: Klucel (hydroxypropylcellulose) (HPC) 87 % of control | dose: 25.0 mg/kg/injection, schedule: Q01DX009 (ip), vehicle: Klucel (hydroxypropylcellulose) (HPC) 87 % of control | dose: 50.0 mg/kg/injection, schedule: Q01DX009 (ip), vehicle: Klucel (hydroxypropylcellulose) (HPC) 94 % of control | [4] 93 % of control | [5] 97 % of control | [6] 90 % of control

C(=NC1CCCCC1)=NC1CCCCC1
inactive: dose: 2.5 mg/kg/injection, schedule: Q04DX003 (ip), vehicle: Klucel (hydroxypropylcellulose) (HPC) 105 % of control | dose: 5.0 mg/kg/injection, schedule: Q04DX003 (ip), vehicle: Klucel (hydroxypropylcellulose) (HPC) 105 % of control | dose: 10.0 mg/kg/injection, schedule: Q04DX003 (ip), vehicle: Klucel (hydroxypropylcellulose) (HPC) 106 % of control

CCOC(=O)C1C(O)=C(c2ccccc2)P(=O)(Cc2ccccc2)C1(C)C (centres undefined)
inactive: [8] 94 % of control | dose: 200.0 mg/kg/injection, schedule: Q04DX003 (ip), vehicle: saline with Tween-80 94 % of control | dose: 400.0 mg/kg/injection, schedule: Q04DX003 (ip), vehicle: saline with Tween-80 91 % of control

COC(=O)c1cccc2c1-c1ccccc1C(Br)C2Br (centres undefined)
inactive: [1] 111 % of control | [10] 96 % of control | [2] 95 % of control | [12] 92 % of control | [3] 97 % of control | [13] 94 % of control

C=CC(=O)NC12CC3CC(CC(C3)C1)C2
inactive: [1] 88 % of control | [7] 104 % of control | [2] 93 % of control | dose: 200.0 mg/kg/injection, schedule: Q01DX009 (ip), vehicle: saline with Tween-80 97 % of control | [3] 90 % of control | dose: 400.0 mg/kg/injection, schedule: Q01DX009 (ip), vehicle: saline with Tween-80 101 % of control

O=C(NC1CCC(C(=O)O)CC1)OCc1ccccc1 (centres undefined)
inactive: [1] 98 % of control | [9] 109 % of control | dose: 100.0 mg/kg/injection, schedule: Q04DX003 (ip), vehicle: acetone 96 % of control | [2] 102 % of control | [11] 100 % of control | dose: 200.0 mg/kg/injection, schedule: Q04DX003 (ip), vehicle: acetone 102 % of control | [3] 98 % of control | dose: 400.0 mg/kg/injection, schedule: Q01DX009 (ip), vehicle: saline 105 % of control | dose: 400.0 mg/kg/injection, schedule: Q04DX003 (ip), vehicle: acetone 98 % of control
